Some test systems named below: ACHN renal; DLD-1 colon; DMS 114 small cell lung; DMS 273 small cell lung; HOP-62 NSCLC; KM20L2 colon; MOLT-4 leukemia; RXF 393 renal; SNB-75 CNS; HS 578T breast; MCF7 breast; T-47D breast.
Common to all, as to test: inhibition of tumour cell growth, NCI panel, 48 h

TGI data for 20 compounds are collected here from PubChem BioAssay (NCI).

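How tested: cells in 96-well plates exposed to compound for 48 hours at five concentrations. TGI denotes the concentration required for complete inhibition of growth.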

For `O=[N+]([O-])c1ccccc1C1N2CCCCC2[C@@H]2c3[nH]c4ccccc4c3CCN12` (stereo partly drawn), the TGI in the assay on ACHN renal is 31.3 µM; in the assay on DLD-1 colon, 36.3 µM; with DMS 114 small cell lung, 14.7 µM; with DMS 273 small cell lung it was 23.4 µM; in the assay with HOP-62 NSCLC, 29.2 µM; with KM20L2 colon it was 25.1 µM. The TGI in the assay on MOLT-4 leukemia came to 28.1 µM; in the assay on RXF 393 renal, 26.4 µM.
Turning to `C/C(=N\Nc1ccc([N+](=O)[O-])cc1)C(=O)N(C)Nc1ccccc1`, the TGI in the assay with ACHN renal, in the assay on DLD-1 colon, in the assay with DMS 114 small cell lung, in the assay with DMS 273 small cell lung, with HOP-62 NSCLC and in the assay on KM20L2 colon was more than 100 µM throughout. The TGI in the assay with MOLT-4 leukemia, in the assay with RXF 393 renal and in the assay with SNB-75 CNS was more than 100 µM each time.
Take `O=C1C2=C(c3ccccc31)C(c1ccccc1Cl)N1C(=O)CSC1=N2` (stereo not drawn): the TGI in the assay with ACHN renal, with DLD-1 colon, in the assay on DMS 114 small cell lung, with DMS 273 small cell lung, with HOP-62 NSCLC and with KM20L2 colon was more than 100 µM each time. Besides, the TGI in the assay with MOLT-4 leukemia and in the assay on SNB-75 CNS was more than 100 µM throughout.
Take `Cc1ccc(NC(=O)C(=O)Cc2nc3ccccc3o2)c(C)c1`: the TGI in the assay on ACHN renal, in the assay on DLD-1 colon, in the assay on DMS 114 small cell lung, in the assay on DMS 273 small cell lung, in the assay on HOP-62 NSCLC and in the assay on KM20L2 colon was more than 100 µM throughout. Besides, the TGI in the assay on RXF 393 renal and in the assay on SNB-75 CNS was more than 100 µM throughout.
Take `C[Si](C)(C)/C=C/CN1C(=O)CCC1O` (stereo not drawn): the TGI in the assay with ACHN renal, with DLD-1 colon, in the assay on DMS 114 small cell lung, in the assay on DMS 273 small cell lung, with HOP-62 NSCLC and in the assay on KM20L2 colon was more than 100 µM each time. In addition, the TGI in the assay with MOLT-4 leukemia, in the assay with RXF 393 renal and in the assay on SNB-75 CNS was more than 100 µM in each case.
In the case of `O=c1c([Se]c2coc3ccccc3c2=O)coc2ccccc12`, the TGI with ACHN renal is 32.1 µM; in the assay with DLD-1 colon, 34 µM; in the assay on DMS 114 small cell lung, 31.5 µM; with DMS 273 small cell lung, 24 µM; in the assay with HOP-62 NSCLC, 21.1 µM; with KM20L2 colon, 26.4 µM. The TGI in the assay with MOLT-4 leukemia turned out to be 48.2 µM; with RXF 393 renal, 29.5 µM; in the assay on SNB-75 CNS, 29.1 µM.
`C=C1C(C)C2C(Cc3ccccc3)NC(=O)C23C(OC(C)=O)/C=C/C(C)(O)CC(C)C/C=C/C3C1O` (stereo not drawn): the TGI was more than 100 µM in the assay on ACHN renal; more than 100 µM in the assay with DLD-1 colon; more than 100 µM in the assay with DMS 114 small cell lung; more than 82 µM in the assay with DMS 273 small cell lung; 3.08 µM in the assay with HOP-62 NSCLC; 0.62 µM in the assay on HS 578T breast. Besides, the TGI in the assay on KM20L2 colon was more than 100 µM; with MCF7 breast, more than 94.5 µM; in the assay with MOLT-4 leukemia, 77.2 µM; in the assay with RXF 393 renal, 2.97 µM; in the assay on SNB-75 CNS, 0.0862 µM; with T-47D breast it was more than 100 µM.
For `COC(=O)C1=C(C(=O)OC)C2(C(=O)OC)OC1(OC)C(C1(C(=O)OC)C(C(=O)OC)=C1C(=O)OC)=C2C(=O)OC` (stereo not drawn), the TGI in the assay with ACHN renal, in the assay on DLD-1 colon, in the assay on DMS 114 small cell lung, in the assay on DMS 273 small cell lung, with HOP-62 NSCLC and in the assay with KM20L2 colon was more than 100 µM each time. Besides, the TGI in the assay on MOLT-4 leukemia, with RXF 393 renal and in the assay on SNB-75 CNS was more than 100 µM throughout.
Consider `CC[C@@H]1OC2(C)CC(S(=O)(=O)c3ccccc3)CC1O2` (stereo partly drawn), for which the TGI with ACHN renal, in the assay on DLD-1 colon, in the assay with DMS 114 small cell lung, in the assay on DMS 273 small cell lung, in the assay with HOP-62 NSCLC and with KM20L2 colon was more than 100 µM in each case. Moreover, the TGI in the assay with MOLT-4 leukemia, in the assay on RXF 393 renal and in the assay with SNB-75 CNS was more than 100 µM each time.
As for `CCc1cccc(C)c1NC(=O)NS(=O)(=O)c1ccc(C)cc1`, the TGI with ACHN renal, with DLD-1 colon, with DMS 114 small cell lung, in the assay with DMS 273 small cell lung, with HOP-62 NSCLC and in the assay with KM20L2 colon was more than 100 µM in each case. The TGI in the assay with MOLT-4 leukemia, in the assay on RXF 393 renal and in the assay on SNB-75 CNS was more than 100 µM throughout.
Regarding `COc1ccc(C(=O)C=C2NCCN2)cc1`, the TGI with ACHN renal, in the assay with DLD-1 colon, with DMS 114 small cell lung, with DMS 273 small cell lung, with HOP-62 NSCLC and in the assay with KM20L2 colon was more than 100 µM throughout. Further, the TGI in the assay with MOLT-4 leukemia, in the assay on RXF 393 renal and in the assay on SNB-75 CNS was more than 100 µM in each case.
For `Fc1ccccc1C1CC(C(c2ccccc2)c2ccccc2)=Nc2ccccc2S1` (stereo not drawn), the TGI in the assay with ACHN renal was determined as 43.6 µM; in the assay on DLD-1 colon, 23.6 µM; in the assay on DMS 114 small cell lung it was 23.6 µM; in the assay with DMS 273 small cell lung, 20.9 µM; in the assay with HOP-62 NSCLC it was 26.9 µM; in the assay on KM20L2 colon it was 27.6 µM. Also, the figures for the TGI with MOLT-4 leukemia, with RXF 393 renal and in the assay on SNB-75 CNS were 11 µM, 17.2 µM and 5.48 µM, respectively.
Consider `CCOC(=O)C(C[Si](C)(C)C)P(=O)(OCC)OCC` (stereo not drawn), for which the TGI with ACHN renal, in the assay with DLD-1 colon, in the assay with DMS 114 small cell lung, in the assay on DMS 273 small cell lung, with HOP-62 NSCLC and with KM20L2 colon was more than 100 µM throughout. Further, the TGI in the assay with MOLT-4 leukemia, in the assay on RXF 393 renal and in the assay with SNB-75 CNS was more than 100 µM throughout.
For `CC(=O)Nc1ccc(-c2nnc(SCC(=O)Nc3ccc(C)cc3)o2)cc1`, the TGI with ACHN renal was 70.3 µM; in the assay with DLD-1 colon, 30.2 µM; in the assay on DMS 114 small cell lung it was 28.2 µM; in the assay with DMS 273 small cell lung, 30.1 µM; with HOP-62 NSCLC, more than 100 µM; with KM20L2 colon it was 36.5 µM. Further, the TGI in the assay with MOLT-4 leukemia was more than 100 µM; with RXF 393 renal, 33.2 µM; with SNB-75 CNS, 58.6 µM.
Take `Cc1nc(C(N)=S)sc1C(=O)/C=C/c1cccc(O)c1`: the TGI with ACHN renal, in the assay on DLD-1 colon, in the assay with DMS 114 small cell lung, with DMS 273 small cell lung, with HOP-62 NSCLC and in the assay on KM20L2 colon was more than 100 µM throughout. The TGI with MOLT-4 leukemia, in the assay with RXF 393 renal and in the assay on SNB-75 CNS was more than 100 µM in each case.
`O=c1cccccc1NCCCCNc1cccccc1=O`: the TGI in the assay with ACHN renal, with DLD-1 colon, in the assay with DMS 114 small cell lung, with DMS 273 small cell lung, in the assay on HOP-62 NSCLC and in the assay with KM20L2 colon was more than 100 µM throughout. The TGI with MOLT-4 leukemia and in the assay on SNB-75 CNS was more than 100 µM in each case.
On to `O=C1c2cc(CCl)sc2C(=O)c2ccsc21`, for which the TGI in the assay with ACHN renal amounted to 1.25 µM; with DLD-1 colon it was 2.16 µM; in the assay with DMS 114 small cell lung, 0.298 µM; in the assay on DMS 273 small cell lung, 1.12 µM; in the assay with HS 578T breast it was 0.498 µM; in the assay on KM20L2 colon, 2.84 µM. Besides, the TGI in the assay on MCF7 breast stood at 0.406 µM; with MOLT-4 leukemia, 0.47 µM; in the assay with RXF 393 renal it was 0.883 µM; with SNB-75 CNS, 0.38 µM; in the assay on T-47D breast, 0.562 µM.
Consider `CCOC(=O)C(C)(C)Oc1ccc2c(-c3ccc(Cl)cc3)cc(=O)oc2c1`, for which the TGI in the assay with ACHN renal, in the assay with DLD-1 colon, in the assay with DMS 114 small cell lung, in the assay with DMS 273 small cell lung, in the assay on HOP-62 NSCLC and in the assay with KM20L2 colon was more than 100 µM each time. Moreover, the TGI with MOLT-4 leukemia, with RXF 393 renal and with SNB-75 CNS was more than 100 µM in each case.
For the compound `CC1(C)OCN(c2ccc(Cl)cc2)Cn2c1nc1ccccc12`, the TGI with ACHN renal is more than 100 µM; with DLD-1 colon, more than 100 µM; with DMS 114 small cell lung, 53.2 µM; in the assay on DMS 273 small cell lung, more than 100 µM; in the assay with HOP-62 NSCLC, more than 100 µM; with KM20L2 colon, more than 100 µM. Further, the TGI in the assay on MCF7 breast, with MOLT-4 leukemia, in the assay with RXF 393 renal, in the assay on SNB-75 CNS and in the assay with T-47D breast was more than 100 µM in each case.
`COc1cc2c(cc1C)n(O)c(C)c(C(=O)C/C(=N/NC(=O)C[N+](C)(C)C)C(=O)Nc1cccc(Cl)c1C)[n+]2=O`: the TGI with ACHN renal, with DLD-1 colon, with DMS 114 small cell lung, in the assay with DMS 273 small cell lung, with HOP-62 NSCLC and in the assay on KM20L2 colon was more than 100 µM each time. Further, the TGI in the assay on MOLT-4 leukemia, in the assay on RXF 393 renal and in the assay on SNB-75 CNS was more than 100 µM throughout.
